Measurements from patent US20210405025A1, “IDENTIFYING COMPOUNDS FOR TREATING CANCER AND USE THEREOF” (THE UAB RESEARCH FOUNDATION, priority 2018, published 2021).
Structures can show the parent of a compound that is named as a salt.

System: relapsed AML cells
Assay: Drug sensitivity assay, 1,536-well, 3-day culture with individual approved drugs at 10 μM, viability by alamarBlue
Assay type: cell-based, human
Settings: number of relapsed AML cases out of 18 tested with >70% cell death; 10 μM, 3-day culture
Procedure: Drug sensitivity assays were performed using a 1,536-well platform where all cells and reagents were deposited in wells using an acoustic liquid handling unit that is highly accurate for dispensing of nanoliter volumes of liquid. […] After dispensing the cells into the wells, an independent drug at a known concentration is added to each well and incubated with the cells. After three days, the percentage of live cells in each well is determined to assess the killing efficiency of each compound. […] Cell viability assays are known to those of skill in the art. See, for example, Pemovska et al., Individualized systems medicine strategy to tailor treatments for patients with chemorefractory acute myeloid leukemia. Cancer Discovery 3:1416-1429, 2013; Pabst et al., Identification of small molecules that support human leukemia stem cell activity ex vivo. Nature Methods 11:436-442, 2014; Baccelli et al., A novel approach for the identification of efficient combination therapies in primary human acute myeloid leukemia specimens. Blood Cancer Journal 7:e529, 2017. In studies described herein, the 1,536-well format was utilized, which allowed for use of four times fewer cells as well as less drug and media components due to the small assay volume of 5 microliters. […] Other compounds like CellTiter-Glo (Promega, Madison, Wis.) are equally appropriate reagents for determining cell viability.
Conditions for the drug screening assays were as described in Pabst et al., Identification of small molecules that support human leukemia stem cell activity ex vivo, Nature Methods 11:436-442, 2014). Using this protocol, cells were cultured in Iscove's Modified Dulbecco's Medium (IMDM), 15% BIT (bovine serum albumin, insulin, transferrin; Stem Cell Technologies 09500 (Vancouver, Calif.)), 100 ng/ml SCF (Shenandoah 100-04 (Warwick, Pa.)), 50 ng/ml FLT3L (Shenandoah 100-21), 20 ng/ml IL-3 (Shenandoah 100-80), 20 ng/ml G-CSF (Shenandoah 100-72), 10^-4 M β-mercaptoethanol, gentamicin (50 μg/ml) and ciprofloxacin (10 μg/ml).
Cells were removed from liquid nitrogen and placed in a 37° C. bath, just until thawed. For 1,536-well screens utilizing 6,000 wells about 100 million cells were thawed. The volume was doubled with pre-warmed culture media and placed on ice for about one to two minutes. The cells were brought to a final volume of about 8 to 10 mL before spinning down at 1,100 rpm for 5 min at 10° C. The pelleted cells were resuspended in 10 mL of culture media and plated in a tissue-culture treated T75 flask at a density of 1 to 2 million cells/ml. The cells were cultured overnight prior to fluorescence-activated cell sorting of viable cells on the following day.
After cells were cultured overnight, a cell scraper was used to remove any cells that adhered to the plastic. The cells were gently pipetted up and down to break up aggregates. Then, the entire volume was transferred to a 50 mL conical tube through a 70 micron cell strainer to remove cell clumps. The T75 flask was rinsed and scraped with about 10 mL HBSS and transferred to the same 50 mL conical tube through the strainer. The harvested cells were spun down at 1,100 rpm for 5 min at 10° C. The cells were then resuspendd in about 300-500 microliters FACS buffer (HBSS+2% FBS+1× propidium iodide) and transferred to a FACS tube. The tube was placed on ice and viable cells that are forward- and side-scatter gated on viable myeloid blasts were sorted by FACS (the scatter gate should exclude small lymphocytes, large myeloid cells, and debris). After sorting the required number of viable cells, the cells were spun down at 1,100 rpm for 5 min at 10° C. and subsequently resuspended at 4,000-4,500 cells per 5 microliter volume of complete culture media with growth factors and penicillin/streptomycin.

| Molecule | #Cases >70% cell death |
| --- | --- |
| CC(C)(C)C(=O)C(Oc1ccc(Cl)cc1)n1ccnc1 (stereo not drawn) [CLIMBAZOLE] | 1 |
| CN1CCN(c2ccc3nc(-c4c(N)c5c(F)cccc5[nH]c4=O)[nH]c3c2)CC1 [GFKI-258] | 16 |
| O=c1[nH]c2ccccc2n1C1CCN(CCCC(c2ccc(F)cc2)c2ccc(F)cc2)CC1 [PIMOZIDE] | 1 |
| CCN(CC)CCOc1ccc(Cc2ccccc2)cc1 [TESMILIFENE HYDROCHLORIDE] | 9 |
| Cc1ccc(Nc2nccc(N(C)c3ccc4c(C)n(C)nc4c3)n2)cc1S(N)(=O)=O [PAZOPANIB] | 4 |
| CCc1ccc(CCOc2ccc(CC3SC(=O)NC3=O)cc2)nc1 (stereo not drawn) [PIOGLITAZONE] | 8 |
| c1ccc(CC2=NCCN2)cc1 [TOLAZOLINE HYDROCHLORIDE] | 4 |
| CC1=C(C(=O)OC(C)C)C(c2cccc([N+](=O)[O-])c2)C(C(=O)OC2CN(C(c3ccccc3)c3ccccc3)C2)=C(N)N1 (stereo not drawn) [AZELNIDIPINE] | 5 |
| CN(C)C(=O)n1cc(C(=O)c2ccn3c2CS[C@@H]3c2cccnc2)c2ccc(-c3ccc(F)cc3)cc21 [A-85783] | 9 |
| BLEOMYCIN | 2 |
| CCC[C@H](Nc1nc(-c2ccc(NC(=O)NCC)c(OC)c2)ncc1C)c1cccnc1 [LEXIBULIN] | 13 |
| COC(=O)Nc1nc2ccc(Sc3ccccc3)cc2[nH]1 [FENBENDAZOLE] | 5 |
| N=C(N)c1ccc(OCCCCCOc2ccc(C(=N)N)cc2)cc1 [PENTAMIDINE] | 2 |
| COC(=O)Nc1nc2ccc(C(=O)c3ccccc3)cc2[nH]1 [MEBENDAZOLE] | 5 |
| Cc1cc(Nc2nc(N[C@@H](C)c3ncc(F)cn3)ncc2Cl)[nH]n1 [AZD-1480] | 12 |
| N#CC[C@H](C1CCCC1)n1cc(-c2ncnc3[nH]ccc23)cn1 [RUXOLITINIB] | 6 |
| CCC(=O)O[C@]1(C(=O)SCF)[C@H](C)C[C@H]2[C@@H]3C[C@H](F)C4=CC(=O)C=C[C@]4(C)[C@@]3(F)[C@@H](O)C[C@@]21C [FLUTICASONE PROPIONATE] | 3 |
| Clc1ccccc1CN1CCc2sccc2C1 [TICLOPIDINE] | 1 |
| CC1(C)O[C@@H]2C[C@H]3[C@@H]4C[C@H](F)C5=CC(=O)CC[C@]5(C)[C@H]4[C@@H](O)C[C@]3(C)[C@]2(C(=O)CO)O1 [FLURANDRENOLIDE] | 18 |

| Molecule | #Cases >70% cell death |
| --- | --- |
| CC[C@H](CC#N)OC(=O)N[C@@H](C)c1cccc(NC(=O)Nc2ccc(-c3cnco3)c(OC)c2)c1 [AVN944] | 10 |
| NC(=O)Nc1cc(-c2cccc(F)c2)sc1C(=O)N[C@H]1CCCNC1 [AZD-7762] | 14 |
| O=C(O)CCCCN(CCc1ccccc1OCc1ccc(CCc2ccccc2)cc1)Cc1ccc(C(=O)O)cc1 | 1 |
| O=C(CCCN1CC=C(n2c(=O)[nH]c3ccccc32)CC1)c1ccc(F)cc1 [DROPERIDOL] | 2 |
| OCCOCCN1CCN(C2=Nc3ccccc3Sc3ccccc32)CC1 [QUETIAPINE] | 1 |
| COC(=O)Nc1nc2cc(C(=O)c3ccc(F)cc3)ccc2[nH]1 [FLUBENDAZOLE] | 2 |
| Nc1nc(Cl)nc2c1ncn2[C@H]1C[C@H](O)[C@@H](CO)O1 [CLADRIBINE] | 17 |
| O=C(/C=C/c1cccc(S(=O)(=O)Nc2ccccc2)c1)NO [BELINOSTAT] | 1 |
| CC[C@@H](C(=O)[C@@H](C)[C@@H](O)[C@H](C)[C@@H]1O[C@@H]([C@@H](CC)C(=O)O)CC[C@@H]1C)[C@H]1O[C@]2(C=C[C@@H](O)[C@]3(CC[C@@](C)([C@H]4CC[C@](O)(CC)[C@H](C)O4)O3)O2)[C@H](C)C[C@@H]1C [SALINOMYCIN] | 10 |
| CC1=C(/C=C/C(C)=C/C=C/C(C)=C/C(=O)Nc2ccc(O)cc2)C(C)(C)CCC1 [FENRETINIDE] | 9 |
| COc1ccc(S(=O)(=O)Nc2cccnc2Nc2ccc(O)cc2)cc1 [ABT-751] | 5 |
| CCOc1ccc2nc3cc(N)ccc3c(N)c2c1 [ETHACRIDINE LACTATE] | 2 |
| C[n+]1c2cc(N)ccc2cc2ccc(N)cc21.[Cl-] [ACRIFLAVINIUM HYDROCHLORIDE] | 5 |
| CN[C@H](C(=O)N[C@H](C(=O)N(C)[C@H](/C=C(\C)C(=O)O)C(C)C)C(C)(C)C)C(C)(C)c1ccccc1 [TALTOBULIN] | 14 |
| O=S(=O)([O-])CCSSCCS(=O)(=O)[O-].[Na+].[Na+] [DIMESNA] | 1 |
| COc1ccc2nc3cc(Cl)ccc3c(Nc3cc(CN4CCCC4)c(O)c(CN4CCCC4)c3)c2n1.O=P(O)(O)O.O=P(O)(O)O.O=P(O)(O)O.O=P(O)(O)O [PYRONARIDINE TETRAPHOSPHATE] | 9 |
| CCN1CCN(Cc2ccc(-c3cc4c(N[C@H](C)c5ccccc5)ncnc4[nH]3)cc2)CC1 [AEE-788] | 13 |
| CCCSc1ccc2nc(NC(=O)OC)[nH]c2c1 [ALBENDAZOLE] | 9 |
| CO[C@H]1C(=O)[C@]2(C)[C@@H](OC)C[C@H]3OC[C@@]3(OC(C)=O)[C@H]2[C@H](OC(=O)c2ccccc2)[C@]2(O)C[C@H](OC(=O)[C@H](O)[C@@H](NC(=O)OC(C)(C)C)c3ccccc3)C(C)=C1C2(C)C [CABAZITAXEL] | 5 |

| Molecule | #Cases >70% cell death |
| --- | --- |
| TYLOXAPOL | 8 |
| CCn1cc(C(=O)O)c(=O)c2cnc(N3CCCC3)nc21 [PIROMIDIC ACID] | 5 |
| COCc1c(C(C)C)nc(C(C)C)c(/C=C/[C@@H](O)C[C@@H](O)CC(=O)O)c1-c1ccc(F)cc1 [CERIVASTATIN] | 17 |
| CCn1cc(-c2ccnc3[nH]c(-c4cccc(CN(C)C)c4)cc23)c(-c2ccc(NC(=O)N(C)C)cc2)n1 [GSK1070916] | 11 |
| Cc1nc2sccn2c(=O)c1CCN1CCC(=C(c2ccc(F)cc2)c2ccc(F)cc2)CC1 [RITANSERIN] | 1 |
| C[C@H]1C[C@@H]2[C@H]([C@@H](O)C[C@@]3(C)[C@H]2CC[C@]3(O)C(=O)CO)[C@@]2(C)C=CC(=O)C=C12 [METHYLPREDNISOLONE] | 1 |
| ARSENIC TRIOXIDE DIETHANOLAMINE SALT | 16 |
| CCCCCCCCCCC[C@@H](C[C@@H]1OC(=O)[C@H]1CCCCCC)OC(=O)[C@H](CC(C)C)NC=O [ORLISTAT] | 9 |
| CC(C)(C)CC(C)(C)c1ccc(OCCOCC[N+](C)(C)Cc2ccccc2)cc1 [BENZETHONIUM CHLORIDE] | 16 |
| CN(C)CCCOc1nn(Cc2ccccc2)c2ccccc12 [BENZYDAMINE] | 4 |
| COc1cc2c(c(OC)c1OC)-c1ccc(OC)c(=O)cc1[C@@H](NC(C)=O)CC2 [COLCHICINE] | 13 |
| CCCC(=O)O[C@]1(C(=O)COC(C)=O)CC[C@H]2[C@@H]3C[C@H](F)C4=CC(=O)C=C[C@]4(C)[C@@]3(F)[C@@H](O)C[C@@]21C [DIFLUPREDNATE] | 1 |
| CCc1cc(Cl)c(OC)c(C(=O)NC[C@@H]2CCCN2CC)c1O [ETICLOPRIDE HYDROCHLORIDE] | 1 |
| Clc1ccc(CO/N=C(\Cn2ccnc2)c2ccc(Cl)cc2Cl)c(Cl)c1 [OXICONAZOLE] | 1 |
| Clc1ccc(C(Cn2ccnc2)OCc2csc3c(Cl)cccc23)c(Cl)c1 (stereo not drawn) [SERTACONAZOLE] | 2 |
| Clc1ccc(C(Cn2ccnc2)OCc2ccsc2Cl)c(Cl)c1 (stereo not drawn) [TIOCONAZOLE] | 1 |
| Cc1ccc(C(=O)c2cc(O)c(O)c([N+](=O)[O-])c2)cc1 [TOLCAPONE] | 1 |
| C#Cc1cccc(Nc2ncnc3cc(OCCOC)c(OCCO)cc23)c1 [OSI-420] | 3 |
| COc1ccc(CN2CCN(C(c3ccc(F)cc3)c3ccc(F)cc3)CC2)c(OC)c1OC [LOMERIZINE] | 7 |
